SMILES strings stand for the structures.

The subject of test [1] is leaf rust (Puccinia recondita: PUCCRT). The test is described as follows: Cereal field trial, leaf rust on wheat. Format: in vivo. As to conditions: winter wheat field trial; 9.5% emulsifiable concentrate; 140, 280 and 421 g a.i./ha; low natural incidence. On the procedure:
(§1) A field trial of Compound 4 was conducted on soft red winter wheat cultivar Sisson. Very dry weather gave rise to a low natural incidence of leaf rust (Puccinia recondita: PUCCRT) late in the trial. Compound 4 was applied as a 9.5% active ingredient (weight/weight) emulsifiable concentrate of the following formula (each weight/weight): 9.5% Compound 4, 9.5% m-Pyrol, 65% Surfadone LP-100, 6% Surfadone LP-300, 5% Toximul 3463F, and 5% Toximul 3464F. Rates of Compound 4 application were as follows (grams active ingredient per hectare: g a.i./ha): 140, 280 and 421.

Test [2] relates to creeping bentgrass cv. Penncross. Put plainly: Turf trial, turfgrass quality and phytotoxicity. As to conditions: creeping bentgrass plots inoculated with S. homoeocarpa; ratings >6.0 acceptable.
Method: A fungicide trial was conducted on a 15-yr-old sward of creeping bentgrass cv. Penncross during the spring. The turfgrass was maintained using cultural practices similar to those used in maintenance of bentgrass golf greens in the southern United States. Treatments were arranged as plots (0.5×1.0 m) in a randomized complete block design with four replications. […] All other fungicides were applied according to their labels (Banner MAXX 1.3ME and Insignia 20WG). The turfgrass was inoculated with autoclaved tall fescue seed infested with Sclerotinia homoeocarpa (common name: dollar spot) six hours after application of the initial preventive treatments. The plots received approximately 0.24 inches of irrigation water daily at 1700 hour to ensure nightly foliar wetness for infection. The Horsfall-Barratt rating scale was used to visually estimate disease severity at approximately 7-day intervals from the initial application date. Turfgrass quality was assessed using a 0-9 scale where 0=a necrotic, thin foliar canopy and 9=a dark green, dense foliar canopy. Disease and quality values were subjected to analysis of variance and means were statistically separated using the Scott-Knott cluster analysis procedure.
Test [3] concerns Sclerotinia homoeocarpa (common name: dollar spot). Put plainly: Turf trial, dollar spot on creeping bentgrass. The test is classed as in vivo. As to conditions: creeping bentgrass plots; Compound 4 as 25% wetable powder at 2.2, 4.4, 8.8 g a.i. per 1000 square feet; mean disease <3.0% acceptable. The source says: Penncross during the spring.
For test [4], the system named is soft red winter wheat cultivar Sisson. Put plainly: Cereal field trial, yield. As to conditions: highest rate of Compound 4 (421 g a.i./ha). Format: in vivo. The procedure: as §1

As for `OC(c1cccnc1)c1c(-c2ccc(Cl)cc2Cl)noc1-c1cccc(Cl)c1` (stereo not shown) [Compound 4, 5-(3-Chlorophenyl)-3-(2,4-dichlorophenyl)-4-[(3-pyridyl)hydroxymethyl]-isoxazole], in test [1], the “Control of leaf rust incidence” value is on record as “good control of the rust incidence”. For the same compound, the “Turfgrass quality (0-9 scale)” value in test [2] is “Highest quality ratings”. Also, the “Dollar spot disease severity / control (Horsfall-Barratt rating)” value in test [3] was “effective control on dollar spot during most of the trial period”. In addition, the Yield enhancement entry in test [4] is reported as “Yield enhancement was observed”.

The record behind these values is patent US7998983B2, “Substituted isoxazoles as fungicides” (Syngenta Limited, priority 2004, dated 2011).
